Assay results taken from the NIST ThermoML archive (doi:10.1016/j.jct.2013.03.012).
Numbers after ± are expanded uncertainties.

Details: for mass density: 101.33 kPa, Liquid, Levitation methods

[Ti] [titanium]
Details | mass density [kg/m3]
1350 K | 4235 ± 40
1400 K | 4223 ± 40
1450 K | 4211 ± 40
1500 K | 4200 ± 40
1550 K | 4188 ± 40
1600 K | 4176 ± 40
1650 K | 4164 ± 40
1668 K | 4160 ± 40
1700 K | 4152 ± 40

Details | Normal melting temperature [°C]
Crystal, Heating curve in electrostatic levitation apparatus | 1668.1 ± 2
